According to patent publication US20110130374A1, “Small Pyrimidine Derivatives and Methods of Use Thereof” (BIOSEARCH(2007) LTD., priority 2009, published 2011):

Assays:
A375 melanoma cells = test: Transwell cell migration assay, A375 melanoma cells; type: cell-based; conditions: Homo sapiens, A-375; A375 melanoma cells, Transwell 5 μm pore, 24 h, Example 3 (FIGS. 1A, 1E); read-out: IC50 in the migration assay
Description: A375 melanoma cells (CRL-1619, American Type Culture Collection (“ATCC”), Manassas Va., USA)) grown in RPMI medium supplement with 10% FBS were starved for 24 hours in FBS free medium. After starvation of 24 hr, 5×10^4 cells in FBS free medium were placed in the upper chamber of 24-well, Transwell apparatus (CORNING TRANS WELL® polycarbonate membrane inserts, 5 μm pore size) with solvent (DMSO/PEG400) or different concentrations of Compound 1 (PRT7000467), Compound 2 (PRT7041128), or Compound 3 (PRT7081582). Medium containing FBS and compounds was added to the bottom chamber. Twenty-four hours later the melanoma cells from the upper chamber were removed with a cotton swab. Cells that migrated to the lower side of the membrane were stained with Calcein-AM (Sigma) and images were taken with fluorescence microscope. The number of migrating cells was quantified by ImageJ software and the IC50 values were calculated using Prism software (Graphpad) (FIG. 1A,1E).
A375 (melanoma) (CRL-1619, ATCC, Manassas, Va., USA), A431 (melanoma) (CRL-2592, ATCC, Manassas, Va., USA), A2058 (melanoma) (CRL-11147, ATCC, Manassas, Va., USA), MDA-MB-231 (breast) (HTB-26, ATCC, Manassas, Va., USA), LS175T (colon) (ATCC, Manassas, Va., USA), HT29 (colon) (HTB-38, ATCC, Manassas, Va., USA), PC3 (prostate) (CRL-1435, ATCC, Manassas, Va., USA), Panc03.27 (pancreatic) (ATCC, Manassas, Va., USA), 4T1 (breast-mouse) (CRL-2539, ATCC, Manassas. Va., USA), D122 (lung-mouse) (the Weizmann Institute of Science), D122-luc (lung-mouse) (the Weizmann Institute of Science), and B16 F10.9 (melanoma-mouse) cells (Caliper Life Sciences, Hopkinton Mass.), were grown in RPMI medium supplemented with 10% FBS. HUVEC cells were grown in Endothelial Cell Growth Medium 2 and THP1 cells were grown in RPMI medium supplemented with 10% FBS, 2 mM L-Glutamine, 1.5 g/L sodium bicarbonate, 10 mM Hepes, 1 mM sodium pyruvate, 4.5 g/L glucose and 0.05 mM 2-mercaptoethanol. The cells were starved for 24 hours in medium without FBS. At the end of the starvation, 5×10^4 cells in medium without FBS were placed in the upper chamber of 24-well, Transwell apparatus (CORNING TRANSWELL® polycarbonate membrane inserts, 5 μm pore size for […] and THP1 cells and 8 μm pore size for all the other cells) with solvent (DMSO/PEG400) or different concentrations of compound 1 (PRT7000467). Medium with FBS and compounds was added to the bottom chamber. Twenty-four hours later the cells from the upper chamber were removed with a cotton swab. Cells that migrated to the lower side of the membrane were stained with Calcein-AM (Sigma) and images were taken with a fluorescence microscope. The number of migrating cells was quantified by ImageJ software and the IC50 values were calculated using Prism software (Graphpad).

A375 cells = test: Cell viability, WST-1 reagent, A375 cells grown in two-dimension; type: cell-based; conditions: WST-1, 72 h post treatment
Description: Compound 1 (PRT7000467), Compound 2 (PRT7041128), and Compound 3 (PRT7081582) are not toxic to cells grown in two-dimension. A375 cells were cultured with RPMI and 10% FBS. The cells were treated with different concentrations of Compound 1 (PRT7000467) and Compound 2 (PRT7041128), then the viability of the cells was determined seventy-two hours post treatment using WST-1 reagent (Roche) (FIG. 1B)

O=C(Nc1ccc(S(=O)(=O)Nc2ncccn2)cc1)/C(=C\c1cccs1)NC(=O)c1cccs1 [Compound 2]
IC50 (A375 melanoma cells): 9.2 µM | toxicity to cells grown in two-dimension (A375 cells): not toxic
